System: miR-16, miR-28, miR-182 in pancreatic (ASPC1) cells
Assay: qRT-PCR of miR-16, miR-28, miR-182 in ASPC1 cells
Format: cell-based, human
Details: ASPC1, 24-72 hours post incubation, vs DMSO
Experimental: Levels of each microRNA were measured at different times post incubation (24-72 hours) by standard qRT-PCR, normalized to internal controls (U6 or U8 snRNA), in both gastric (AGC) and pancreatic (ASPC1) cell lines. Levels of the microRNA are generally the same, within experimental uncertainty, in the absence (DMSO) or presence of compound −0052 (30).
FIGS. 15A-15F show the levels of mature miR-16, miR-28, and miR-182 are not consistently affected by the compounds in both gastric (AGS) and pancreatic (ASPC1) cell lines, over multiple time scales (24-72 hours), relative to control where DMSO was added, but no compound.
Cell line maintenance. Using the Cancer Cell Line Encyclopedia (CCLE), in-house cancer cell lines were screened to identify cancer and tissue types with varying levels of miR-21 expression. Experiments were performed using the human-derived cell lines AGS (gastric cancer) and AsPC-1 (pancreatic cancer). […]
Quantitative real time PCR analysis. […] RNA concentration was assessed with the NanoDrop ND-1000 spectrophotometer (ThermoFisher Scientific). […] Expression of miR-21 was assessed utilizing the TaqMan microRNA assay (Applied Biosystems). […] All experiments were performed in triplicate, with all samples normalized to the internal controls and relative expression levels calculated using the 2^ΔΔCt method.

**Q.** Which “cellular levels of miR-16, miR-28, miR-182” value does the source give for `O=c1[nH]c(Nc2ccc(N3CCNCC3)cn2)nc2cnccc12` [Compound 30] here?
**A.** does not affect cellular levels

Source: patent US20230416247A1, “DRUG-LIKE MOLECULES AND METHODS FOR THE THERAPEUTIC TARGETING OF MICRORNA-21” (University of Washington, priority 2020, published 2023)
